The record followed here is article PMC6556873, “Rapid Covalent-Probe Discovery by Electrophile-Fragment Screening” (Journal of the American Chemical Society, 2019).

The nature of data set [1]: in vitro. More on the design: species or system CCD841, HEK293. The settings on record: human, hb2 cells, read-out: HB-2 Cells Viability (%).
Data set [2] is described as follows: in vitro. More on the design: species or system HB2, HEK293. The note with it: human, ccd841 cells.
A further data set addresses T1, BSA (Bos taurus, UniProt P02769).
T1 construct: gene ALB
More on the design: Intact protein LC/MS covalent labelling, fragments in pools of five, 200 uM each, 4 °C. The settings on record: 24 h, 4 °C, pool of five; 200 µM; covalent.

The target in another data set is T2, OTUB2 (OTUB2A) (Homo sapiens, UniProt Q96DC9).
T2 construct: full length residues 1-234, E. coli BL21(DE3)-R3, His tag removed by TEV, construct 27312 Da
T2 sequence (Q96DC9 1-234): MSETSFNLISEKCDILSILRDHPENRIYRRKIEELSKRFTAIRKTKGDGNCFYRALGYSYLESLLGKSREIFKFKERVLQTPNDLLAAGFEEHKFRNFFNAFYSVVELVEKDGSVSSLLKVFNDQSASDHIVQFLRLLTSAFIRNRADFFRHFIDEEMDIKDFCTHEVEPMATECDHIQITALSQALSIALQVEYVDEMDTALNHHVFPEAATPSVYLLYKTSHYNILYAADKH
More on the design: Intact protein LC/MS covalent labelling, fragments in pools of five, 200 uM each, 4 °C. The settings on record: 24 h, 4 °C, pool of five; 200 µM; covalent.

For a further data set, the target named is T3, PCAF (Homo sapiens, UniProt Q92831).
T3 construct: gene KAT2B
More on the design: Intact protein LC/MS covalent labelling, fragments in pools of five, 200 uM each, 4 °C. The note with it: 24 h, 4 °C, pool of five; 200 µM; covalent.

Another data set has as its target T4, NUDT7 (Homo sapiens, UniProt P0C024).
T4 construct: residues 14-235, E. coli, pNIC28-Bsa4, N-terminal His6 tag removed by TEV, construct 26672 Da
More on the design: Intact protein LC/MS covalent labelling, fragments in pools of five, 200 uM each, 4 °C. The settings on record: 24 h, 4 °C, pool of five; 200 µM; covalent.

The next data set addresses T5, NNMT (hNNMT) (Homo sapiens, UniProt P40261).
T5 construct: wild type, N-terminal His6 tag kept (no cleavage described), E. coli, construct 31248 Da
T5 sequence (P40261 1-264): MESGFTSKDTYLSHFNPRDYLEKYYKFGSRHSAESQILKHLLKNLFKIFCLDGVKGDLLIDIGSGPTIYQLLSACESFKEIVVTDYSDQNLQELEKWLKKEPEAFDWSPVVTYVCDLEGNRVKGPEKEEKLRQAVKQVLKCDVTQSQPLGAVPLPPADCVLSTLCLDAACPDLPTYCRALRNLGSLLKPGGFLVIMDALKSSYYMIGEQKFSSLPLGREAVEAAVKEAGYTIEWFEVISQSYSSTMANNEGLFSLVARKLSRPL
More on the design: Intact protein LC/MS covalent labelling, fragments in pools of five, 200 uM each, 4 °C. The note with it: 24 h, 4 °C, pool of five; 200 µM; covalent.

The nature of data set [3]: in vitro. More on the design: species or system HB2, CCD841. The note with it: human, hek293 cells.

One may read the viability as a read-out of living cells in per cent, often relative to untreated cells.

Each structure is given as a SMILES string. Read-outs that look alike come from different tables or passages of the source.

T4 sequence (P0C024 14-235): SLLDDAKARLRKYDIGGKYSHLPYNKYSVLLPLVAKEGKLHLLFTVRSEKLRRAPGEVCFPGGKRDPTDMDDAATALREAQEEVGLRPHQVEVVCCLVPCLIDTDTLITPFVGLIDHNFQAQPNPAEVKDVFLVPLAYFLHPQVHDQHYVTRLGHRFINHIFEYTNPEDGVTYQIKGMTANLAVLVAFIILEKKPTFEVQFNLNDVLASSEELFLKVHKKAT
T3 sequence (Q92831 whole entry): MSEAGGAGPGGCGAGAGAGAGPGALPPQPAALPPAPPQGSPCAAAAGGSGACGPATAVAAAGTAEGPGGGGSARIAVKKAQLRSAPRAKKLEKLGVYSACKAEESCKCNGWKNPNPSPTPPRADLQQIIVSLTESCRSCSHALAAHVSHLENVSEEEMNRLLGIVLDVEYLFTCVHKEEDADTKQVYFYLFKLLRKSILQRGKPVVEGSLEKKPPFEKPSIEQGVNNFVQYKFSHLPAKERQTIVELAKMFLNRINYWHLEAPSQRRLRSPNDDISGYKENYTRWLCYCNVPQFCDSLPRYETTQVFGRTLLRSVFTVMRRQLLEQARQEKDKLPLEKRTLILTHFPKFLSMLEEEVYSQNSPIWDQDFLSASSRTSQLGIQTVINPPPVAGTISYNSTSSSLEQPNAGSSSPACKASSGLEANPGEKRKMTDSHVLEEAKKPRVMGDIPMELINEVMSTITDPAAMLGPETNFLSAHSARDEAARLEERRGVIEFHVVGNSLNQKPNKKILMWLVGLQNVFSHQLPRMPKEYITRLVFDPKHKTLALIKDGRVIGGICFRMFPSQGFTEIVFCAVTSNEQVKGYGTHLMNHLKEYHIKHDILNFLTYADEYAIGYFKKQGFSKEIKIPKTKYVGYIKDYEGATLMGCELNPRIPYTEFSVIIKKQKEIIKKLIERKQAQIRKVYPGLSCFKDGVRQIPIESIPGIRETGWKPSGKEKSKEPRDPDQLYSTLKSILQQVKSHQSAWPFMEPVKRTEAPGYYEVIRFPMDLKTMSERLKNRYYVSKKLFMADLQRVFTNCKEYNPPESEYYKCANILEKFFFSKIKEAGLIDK
T1 sequence (P02769 whole entry): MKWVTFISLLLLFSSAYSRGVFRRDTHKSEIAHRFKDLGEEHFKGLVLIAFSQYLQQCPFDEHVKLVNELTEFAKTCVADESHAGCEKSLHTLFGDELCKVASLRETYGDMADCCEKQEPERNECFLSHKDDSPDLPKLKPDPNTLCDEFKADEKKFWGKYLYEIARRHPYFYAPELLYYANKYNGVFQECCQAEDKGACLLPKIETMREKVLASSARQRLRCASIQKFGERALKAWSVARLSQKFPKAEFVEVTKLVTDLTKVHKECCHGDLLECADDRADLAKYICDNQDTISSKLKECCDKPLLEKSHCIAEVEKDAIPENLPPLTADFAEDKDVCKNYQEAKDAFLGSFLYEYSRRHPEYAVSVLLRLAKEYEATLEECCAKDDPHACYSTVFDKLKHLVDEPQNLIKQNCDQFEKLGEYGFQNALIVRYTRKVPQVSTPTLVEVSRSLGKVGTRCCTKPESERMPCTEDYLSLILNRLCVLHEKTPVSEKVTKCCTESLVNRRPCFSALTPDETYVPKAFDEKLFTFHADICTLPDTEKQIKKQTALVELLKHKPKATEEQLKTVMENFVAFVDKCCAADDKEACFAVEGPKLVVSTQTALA

As to `N#CSc1ccc(NC(=O)CCl)c(Cl)c1` [PCM-0102506], the viability at 48 h, 10 µM stood at 20.6% in the data set “in vitro [1]”, 33.4% in “in vitro [2]” and 51.9% in the data set “in vitro [3]”. On BSA, this compound yielded a BSA of 0. The compound further yielded an OTUB2 at OTUB2 (OTUB2A) of 0. This compound also showed a PCAF on PCAF of 0. At NUDT7, this compound returned an NUDT7 of 0. The NNMT at NNMT (hNNMT) is recorded as 0.38.
`C=CC(=O)N1CCCCC1C(=O)O` (stereo not drawn) [PCM-0102507]: the viability at 48 h, 10 µM was found to be 101% in the data set “in vitro [1]”, 109% in “in vitro [2]” and 95.6% in the data set “in vitro [3]”. The same compound came in with a BSA at BSA of 0. The compound also registered an OTUB2 on OTUB2 (OTUB2A) of 0. This compound displayed a PCAF at PCAF of 0. Also, at NUDT7, the NUDT7 was found to be 0. At NNMT (hNNMT), this compound yielded an NNMT of 0.
`Cc1ccc([N+](=O)[O-])c(NC(=O)CCl)c1C` [PCM-0102511]: the viability at 48 h, 10 µM amounted to 91.5% in “in vitro [1]”, 75.4% in the data set “in vitro [2]” and 56.3% in the data set “in vitro [3]”. The BSA on BSA is given as 0. This compound had an OTUB2 on OTUB2 (OTUB2A) of 0.07. This compound also came in with a PCAF at PCAF of 0. Besides, the NUDT7 at NUDT7 turned out to be 0.15. The compound further gave an NNMT on NNMT (hNNMT) of 0.
For the compound `O=C(CCl)N1CCCCC1` [PCM-0102514], the viability at 48 h, 10 µM in “in vitro [1]” came to 92.8%; in the data set “in vitro [2]”, 88.1%; in the data set “in vitro [3]” it was 90.8%. Further, the BSA on BSA was found to be 0. At OTUB2 (OTUB2A), this compound came in with an OTUB2 of 0. Moreover, the PCAF on PCAF came to 0. The NUDT7 at NUDT7 was found to be 0. The same compound came in with an NNMT at NNMT (hNNMT) of 0.
`C=CC(=O)N1CCCCC1c1ncon1` (stereo not drawn) [PCM-0102517]: the viability at 48 h, 10 µM in the data set “in vitro [1]” stood at 101%; in “in vitro [2]” it was 120%; in the data set “in vitro [3]”, 91.3%. On BSA, this compound came in with a BSA of 0. Besides, the OTUB2 at OTUB2 (OTUB2A) came to 0. For the same compound, the PCAF on PCAF was 0. For the same compound, the NUDT7 on NUDT7 was 0. This compound also showed an NNMT at NNMT (hNNMT) of 0.
Consider `C=CC(=O)NC1CCC(c2nc(C)no2)CC1` (stereo not drawn) [PCM-0102521], for which the results for the viability at 48 h, 10 µM in the data set “in vitro [1]”, in “in vitro [2]” and in “in vitro [3]” were 101%, 116% and 83%, respectively. Moreover, the BSA at BSA is reported as 0. The OTUB2 at OTUB2 (OTUB2A) is on record as 0.35. Besides, on PCAF, the PCAF is given as 0. The NUDT7 at NUDT7 is 0. Moreover, the NNMT at NNMT (hNNMT) stood at 0.
In the case of `C=CC(=O)N1CCCC(c2ncc(C(F)(F)F)[nH]2)C1` (stereo not drawn) [PCM-0102527], the viability at 48 h, 10 µM in the data set “in vitro [1]” worked out at 98.6%; in “in vitro [2]”, 129%; in the data set “in vitro [3]”, 109%. Also, the BSA on BSA is 0.09. At OTUB2 (OTUB2A), this compound gave an OTUB2 of 0. Also, the PCAF on PCAF is 0. For the same compound, at NUDT7, the NUDT7 is recorded as 0. Also, on NNMT (hNNMT), the NNMT is recorded as 0.
As for `C=CC(=O)N1CCN(C(=O)Cc2c(C)noc2C)CC1` [PCM-0102531], the results for the viability at 48 h, 10 µM in “in vitro [1]”, in the data set “in vitro [2]” and in “in vitro [3]” were 106%, 106% and 91.3%, respectively. Also, the BSA at BSA came out at 0. The same compound had an OTUB2 on OTUB2 (OTUB2A) of 0. In addition, on PCAF, the PCAF amounted to 0. The NUDT7 at NUDT7 is given as 0. Also, the NNMT on NNMT (hNNMT) came to 0.
As for `CC(C)c1ccc(NC(=O)CCl)cc1` [PCM-0102532], the viability at 48 h, 10 µM in the data set “in vitro [1]” is 12.7%; in “in vitro [2]” it was 40.4%; in the data set “in vitro [3]”, 7.1%. Further, the BSA at BSA was found to be 0. The compound further gave an OTUB2 on OTUB2 (OTUB2A) of 0.33. This compound also showed a PCAF on PCAF of 0. The NUDT7 on NUDT7 was 0.18. At NNMT (hNNMT), this compound showed an NNMT of 0.68.
As to `CNC(=O)NC(=O)CCl` [PCM-0102534], the values for the viability at 48 h, 10 µM in “in vitro [1]”, in “in vitro [2]” and in “in vitro [3]” were 97.9%, 94.3% and 92.2%, respectively. The compound also gave a BSA at BSA of 0. The same compound gave an OTUB2 at OTUB2 (OTUB2A) of 0. This compound showed a PCAF on PCAF of 0. For the same compound, the NUDT7 at NUDT7 was found to be 0. At NNMT (hNNMT), the NNMT is on record as 0.
Consider `C=CC(=O)NNC(=O)c1ccccc1` [PCM-0102541], for which the viability at 48 h, 10 µM was 106% in “in vitro [1]”, 112% in “in vitro [2]” and 106% in the data set “in vitro [3]”. At BSA, this compound had a BSA of 0. At OTUB2 (OTUB2A), this compound registered an OTUB2 of 0. At PCAF, this compound gave a PCAF of 0. On NUDT7, this compound yielded an NUDT7 of 0. Further, on NNMT (hNNMT), the NNMT came to 0.
As to `COC(=O)c1cc(NC(=O)CCl)cn1C` [PCM-0102545], the viability at 48 h, 10 µM in “in vitro [1]” amounted to 54.5%; in “in vitro [2]” it was 65.4%; in the data set “in vitro [3]” it was 12.7%. Further, on BSA, the BSA was 0. Also, at OTUB2 (OTUB2A), the OTUB2 was 0.33. Also, the PCAF at PCAF turned out to be 0. The compound also yielded an NUDT7 at NUDT7 of 0. Further, the NNMT at NNMT (hNNMT) is given as 0.16.
With `C=CC(=O)Nc1nc(C)cc(C)n1` [PCM-0102547], the viability at 48 h, 10 µM amounted to 98.2% in “in vitro [1]”, 100% in the data set “in vitro [2]” and 133% in “in vitro [3]”. Besides, on BSA, the BSA amounted to 0. On OTUB2 (OTUB2A), this compound registered an OTUB2 of 0. The PCAF on PCAF worked out at 0. Also, at NUDT7, the NUDT7 is on record as 0.34. Also, the NNMT at NNMT (hNNMT) was 0.
Consider `C=CC(=O)N1CCC(c2nccn2C)C1` (stereo not drawn) [PCM-0102553], for which the viability at 48 h, 10 µM in “in vitro [1]” was 99.3%; in the data set “in vitro [2]”, 128%; in the data set “in vitro [3]”, 103%. Besides, the BSA on BSA stood at 0. The OTUB2 on OTUB2 (OTUB2A) is on record as 0. At PCAF, this compound displayed a PCAF of 0. The NUDT7 on NUDT7 was 0. On NNMT (hNNMT), this compound displayed an NNMT of 0.11.
`C=CC(=O)N1CCC2(CC1)CCS(=O)(=O)CC2` [PCM-0102559]: the viability at 48 h, 10 µM in “in vitro [1]” was 105%; in “in vitro [2]”, 113%; in the data set “in vitro [3]” it was 113%. In addition, the BSA on BSA turned out to be 0.12. The OTUB2 at OTUB2 (OTUB2A) was determined as 0. Further, the PCAF on PCAF is given as 0. Also, on NUDT7, the NUDT7 stood at 0. The NNMT on NNMT (hNNMT) was 0.
On to `C=CC(=O)N1CC2(CCCC2)c2cc3c(cc2C1C)OCCO3` (stereo not drawn) [PCM-0102560], for which the values for the viability at 48 h, 10 µM in “in vitro [1]”, in the data set “in vitro [2]” and in the data set “in vitro [3]” were 102%, 110% and 116%, respectively. Besides, the BSA at BSA is 0. Besides, at OTUB2 (OTUB2A), the OTUB2 was 0. Further, the PCAF at PCAF was 0. The compound further yielded an NUDT7 at NUDT7 of 0. The compound also returned an NNMT at NNMT (hNNMT) of 0.19.
Consider `C=CC(=O)NCC1=CS(=O)(=O)c2ccccc21` [PCM-0102563], for which the viability at 48 h, 10 µM was determined as 102% in “in vitro [1]”, 110% in “in vitro [2]” and 82.9% in the data set “in vitro [3]”. The same compound returned a BSA on BSA of 0. At OTUB2 (OTUB2A), this compound had an OTUB2 of 0.04. Moreover, the PCAF on PCAF was determined as 0. In addition, the NUDT7 at NUDT7 came out at 0. This compound also showed an NNMT at NNMT (hNNMT) of 0.07.
With `C=CC(=O)N1CCCC(c2nncn2C2CC2)C1` (stereo not drawn) [PCM-0102567], the results for the viability at 48 h, 10 µM in “in vitro [1]”, in the data set “in vitro [2]” and in the data set “in vitro [3]” were 102%, 112% and 113%, respectively. Further, the BSA on BSA was found to be 0. On OTUB2 (OTUB2A), the OTUB2 came out at 0. Further, at PCAF, the PCAF is 0. At NUDT7, this compound showed an NUDT7 of 0. This compound also registered an NNMT at NNMT (hNNMT) of 0.
